Source: paper PMC2867451 (Journal of medicinal chemistry, 2010)
Read-outs that look alike come from different tables or passages of the source.

Columns and labels:
behavioral toxicity [1] = assay: behavioral toxicity, rat; details: for PI: protective index TD50/ED50; for behavioral toxicity observed: rat (po), 500 mg/kg
[2] = system: maximal electroshock seizure (MES); assay: maximal electroshock seizure; format: in vivo, rat; details: for MES, ED50: rat, po
[3] = system: maximal electroshock seizure (MES); assay: maximal electroshock seizure; format: in vivo, mice; details: for ED50: Mus musculus, ip, read-out: MES, ED50; for duration of action in the MES model: mice (ip) and rat (po)
[4] = system: subcutaneous Metrazol (scMet) seizure; assay: subcutaneous Metrazol; format: in vivo, mice; details: Mus musculus, ip, read-out: scMet ED50
[5] = system: hippocampal kindled seizure; details: rat; similar screening; cited from earlier work
[6] = system: psychomotor 6 Hz (32 mA) seizure; details: mice, ip; cited from earlier work
[7] = system: formalin-induced pain response; details: 16 mg/kg; cited from earlier work
[8] = system: maximal electroshock seizure (MES); details: mice, ip; cited from earlier work
[9] = system: formalin-induced pain response; assay: formalin test, biphasic pain model, mice; format: in vivo; details: 15 mg/kg; mouse, ip
behavioral toxicity, rat = details: male, Sprague-Dawley, rat, in vivo, po
[10] = system: maximal electroshock seizure (MES); details: rat, po; cited from earlier work
[11] = rotorod test for neurological impairment, mice; format: in vivo; details: male, Carworth Farms No. 1, mouse, in vivo, ip
[12] = system: neurological impairment (rotorod test); assay: rotorod test for neurological impairment, mice; format: in vivo; details: mice, ip; rotorod test
behavioral toxicity [13] = details: rat, po; TD50/ED50; cited from earlier work
[14] = system: neurological impairment (rotorod test); details: mice, ip; TD50/ED50; cited from earlier work

SMILES: CC(=O)NC(C(=O)NCc1ccc(OCc2cccc(F)c2)cc1)c1ccccn1 (racemic) [(R,S)-9, N-4′-((3″-Fluoro)benzyloxy)benzyl 2-Acetamido-2-(pyridin-2-yl)acetamide]
- Tox, TD50 (behavioral toxicity [1]; rat, po, behavioral toxicity): >30 [4] mg/kg
- MES, ED50 [2]: >30 [4] mg/kg

SMILES: COCC(NCc1ccc(OCc2cccc(F)c2)cc1)C(N)=O (racemic) [(R,S)-74, 2-(4′-((3″-Fluoro)benzyloxy)benzyl)amino-3-methoxypropionamide]
- ED50 [3]: 30 to 100 mg/kg

SMILES: NC(=O)C(NCc1ccc(OCc2cccc(F)c2)cc1)c1ccco1.O=C(O)C(=O)O (racemic) [(R,S)-75, 2-(4′-((3″-Fluoro)benzyloxy)benzyl)amino-2-(furan-2-yl)acetamide Oxalate]
- ED50 [3]: 10 to 30 mg/kg
- ED50 [4]: 100 to 300 mg/kg

SMILES: COC[C@@H](NC(C)=O)C(=O)NCc1ccccc1 [(R)-3, Lacosamide]
- hippocampal kindled seizure test ED50 [5]: 14 mg/kg
- 6 Hz (32 mA) ED50 [6]: 10 mg/kg
- reduction in pain, formalin model [7]: comparable reduction in pain was observed only in the late phase

SMILES: C[C@@H](NCc1ccc(OCc2cccc(F)c2)cc1)C(N)=O [(R)-4]
- MES, ED50 [8]: 7.2 (5.9–8.9) mg/kg

SMILES: CC(=O)N[C@H](C)C(=O)NCc1ccc(OCc2cccc(F)c2)cc1 [(R)-6, (R)-N-4′-((3″-Fluoro)benzyloxy)benzyl 2-Acetamido-propionamide]
- duration of action in the MES model [3]: extended duration of action
- PI (behavioral toxicity [1]; rat, po): >16

SMILES: COC[C@@H](NC(C)=O)C(=O)NCc1ccc(OCc2cccc(F)c2)cc1 [(R)-10, (R)-N-4′-((3″-Fluoro)benzyloxy)benzyl 2-Acetamido-3-methoxypropionamide]
- pain responses in the acute and the chronic inflammatory phases [9]: reduced pain responses
- PI (behavioral toxicity [1]; rat, po): >36

SMILES: COC[C@@H](NC(C)=O)C(=O)NCc1ccc(-c2cccc(F)c2)cc1 [(R)-11, (R)-N-(3″-Fluorobiphenyl-4-yl)methyl 2-Acetamido-3-methoxypropionamide]
- behavioral toxicity observed (behavioral toxicity [1]): no evidence of behavioral toxicity
- MES, ED50 [2]: 1.4 to 2.4 mg/kg

SMILES: COC[C@@H](NC(C)=O)C(=O)NCc1ccc(Oc2cccc(F)c2)cc1 [(R)-12, (R)-N-4′-((3″-Fluoro)phenoxy)benzyl 2-N-Acetamido-3-methoxypropionamide]
- ED50 [3]: < 30 mg/kg

SMILES: COC[C@@H](NC(C)=O)C(=O)NCc1ccc(C#Cc2cccc(F)c2)cc1 [(R)-15, (R)-N-4′-(((3″-Fluoro)phenyl)ethynyl)benzyl 2-Acetamido-3-methoxypropionamide]
- duration of action in the MES model [3]: extended duration of action
- duration of seizure protection ([2]; MES test, rat (po)): extended for the entire 4 h testing period
- MES, ED50 [2]: 1.4 to 2.4 mg/kg

SMILES: COC[C@@H](NC(C)=O)C(=O)NCc1ccc(COc2cccc(F)c2)cc1 [(R)-16, (R)-N-4′-(((3″-Fluoro)phenoxy)methyl)benzyl 2-Acetamido-3-methoxypropionamide]
- PI (behavioral toxicity [1]; rat, po): >21

SMILES: COC[C@@H](NC(C)=O)C(=O)NCc1ccc(OCc2ccccc2)cc1 [(R)-20, (R)-N-4′-(Benzyloxy)benzyl 2-N-Acetamido-3-methoxypropionamide]
- ED50 [3]: < 3 mg/kg
- TD50 (behavioral toxicity, rat): > 10 mg/kg

SMILES: COC[C@@H](NC(C)=O)C(=O)NCc1ccc(OCc2ccccc2F)cc1 [(R)-21, (R)-N-4′-((2″-Fluoro)benzyloxy)benzyl 2-Acetamido-3-methoxypropionamide]
- PI (behavioral toxicity [1]; rat, po): >45

SMILES: COC[C@@H](NC(C)=O)C(=O)NCc1ccc(OCc2ccc(F)cc2)cc1 [(R)-22, (R)-N-4′-((4″-Fluoro)benzyloxy)benzyl 2-Acetamido-3-methoxypropionamide]
- PI (behavioral toxicity [1]; rat, po): >86

SMILES: COC[C@@H](NC(C)=O)C(=O)NCc1ccc(-c2ccccc2)cc1 [(R)-73, (R)-N-(biphenyl-4-yl)methyl 2-acetamido-3-methoxypropionamide]
- MES, ED50 [10]: 2.0 mg/kg

SMILES: C[C@H](NCc1ccc(OCc2cccc(F)c2)cc1)C(N)=O [(S)-4, Safinamide]
- MES, ED50 [8]: 8.0 (7.0–9.1) mg/kg

SMILES: CC(=O)N[C@@H](C)C(=O)NCc1ccc(OCc2cccc(F)c2)cc1 [(S)-6, (S)-N-4′-((3″-Fluoro)benzyloxy)benzyl 2-Acetamidopropionamide]
- TD50 [11]: > 300 mg/kg

SMILES: COC[C@H](NC(C)=O)C(=O)NCc1ccc(OCc2cccc(F)c2)cc1 [(S)-10, (S)-N-4′-((3″-Fluoro)benzyloxy)benzyl 2-Acetamido-3-methoxypropionamide]
- ED50 [3]: > 300 mg/kg
- Tox, TD50 [12]: >300 mg/kg

SMILES: CC(=O)NCC(=O)NCc1ccc(OCc2cccc(F)c2)cc1 [compound 5, N-4′-((3″-Fluoro)benzyloxy)benzyl 2-Acetamidoacetamide]
- behavioral toxicity observed (behavioral toxicity [1]): no apparent neurological toxicity
- PI (behavioral toxicity [1]; rat, po): >16

SMILES: O=C1NC(=O)C(c2ccccc2)(c2ccccc2)N1 [phenytoin]
- PI (behavioral toxicity [13]): > 100

SMILES: CCCC(CCC)C(=O)[O-].[Na+] [valproate]
- PI [14]: 1.6
- PI (behavioral toxicity [13]): 0.6
